Earlier results on one molecule are cited in patent publication US20060275209A1, “Methods of [11c]-radiolabelling phenothiazine and phenothiazine-like compounds” (priority 2003, published 2006).

For series [1] the following is noted: forms a charge transfer complex with the pigment.
In the next series the test system is melanoma cells. Particulars: diffuses through the cellular membranes.

`CN(C)c1ccc2nc3ccc(N(C)C)cc3[s+]c2c1.[Cl-]` [Methylene blue, 3,7-bis(dimethylamino)phenothiazine-5-ium chloride]: the affinity to melanin entry in series [1] was “very high affinity”. In addition, the “accumulation in melanoma cells” value in the series with melanoma cells is on record as “accumulates selectively”.
